Columns and labels:
Format in all cases: in vivo, mouse
hair cells = assay: Surface preparation / Texas-Red phalloidin staining of hair cells of the Corti's organ after noise exposure; conditions: 1 week after noise exposure, 32 kHz site; montelukast post-treatment group compared with noise exposure group
Experimental: The cut cochlea was perfused with 4% PFA in 0.1 M PB and maintained overnight at 4° C. The cochlea was washed with PBS three times for 10 minutes and then decalcified with a 5% EDTA solution for 3 days. After decalcification, an otic capsule was removed and a lateral wall, a Reissner's membrane, and a tectorial membrane were removed under an optical microscope. The Corti's organ (OC) was dyed with Texas Red VR-X phalloidin (T7471; 200 U/mL methanol diluted 1:100 in PBS; Invitrogen, Eugene, Oreg.) for 1 hour. Thereafter, the entire samples were rinsed with PBS and cut and placed on a glass slide by performing a surface treatment method (microdissected into individual turns) and using a mounting solution containing 4′6-diamidino-2-phenilindol (H-1200; 1.5 μg/ml; DAPI; Vector Laboratories). The slide was incubated for at least 15 minutes. The hair cells of the OC were observed by a confocal microscope (LSM510, Carl Zeiss, Jena, Germany).

stereocilia of OHC = assay: Scanning electron microscopy (SEM) of cochlear hair cells after noise exposure; conditions: basal turn areas corresponding to 32 kHz, montelukast post-treatment compared with only-noise exposed group
Text: The SEM was used for evaluating the form of the hair cells of the cochlea. The mouse was euthanized after intraperitoneal injection of urethane, and temporal bones were dissected at both sides from the skull in order to obtain the cochlea to be carefully cut. The fenestra rotunda of the obtained cochlea was perforated by using a sharp needle. An outer lymph space was perfused with 2% glutaraldehyde in PBS by positioning a Pasteur pipette having a modified butterfly catheter for the fenestra rotunda. Each sample was left in a glutaraldehyde solution overnight. The samples were perfused with 1% osmium tetroxide and positioned at a tissue rotator for 15 minutes. The samples were rinsed with PBS three times. Under an optical microscope, the bone part of the cochlea was carefully removed and a lateral wall was cut and removed to expose the Corti's organ. The tissue was continuously dehydrated with 50, 70, 90, 95, and 100% acetones. Each specimen was treated with hexamethyldisilazane (HMDS) and dried in air, and positioned in a stove for coating of platinum. The tissue was photographed by JSM-6380 (Jeol, Tokyo, Japan). The damage to the hair cells was analyzed in basal turn areas corresponding to 32 kHz.

CysLT1 receptor gene = assay: PCR of Cysltr1 gene expression in the cochlea after noise exposure; conditions: 3 day after noise exposure, montelukast post-treatment vs noise exposure group
Experimental: At 1 day, 3 day, and 7 day, the animal was euthanized with urethane intraperitoneal injection (1 g/kg) and the bilateral temporal bone was immediately removed. Two isolated cochleae were dissolved in a TRIzol solution, the lipid was removed by adding chloroform, and then RNA gene was extracted with isopropanol alcohol. The extracted RNA gene was quantified, mixed with two types of forward and reverse primers and polymerase, and amplified at an average of 35 cycles for each primer through a PCR machine, and then changes in expression level for each gene were compared and analyzed by measuring the fluorescent degree.

[1] = system: matrix metalloproteinase-3 (Mmp3); assay: Gene and protein expression of Mmp3 in inner ear tissue after noise exposure (FIG. 10)

CysLT1 receptor gene (Cysltr1) expression (CysLT1 receptor gene): significantly decreased | Mmp3 gene expression level ([1]; montelukast post-treatment after noise exposure (FIG. 10A)): reduction | Mmp3 protein expression level ([1]; western blot, montelukast post-treatment after noise exposure (FIG. 10B)): reduction
Structure (SMILES): CC(C)(O)c1ccccc1CCC(SCC1(CC(=O)[O-])CC1)c1cccc(/C=C/c2ccc3ccc(Cl)cc3n2)c1.[Na+] (centres unmarked) [montelukast]
hair cell marker (phalloidin) (hair cells): significantly increased | damage to the stereocilia of OHC (stereocilia of OHC): significantly reduced

Reference: patent publication US10441616B2, “Pharmaceutical composition for treating or preventing sensorineural hearing loss, containing cysteinyl leukotriene receptor antagonist and ginkgo leaf extract” (AJOU UNIVERSITY INDUSTRY-ACADEMIC COOPERATION FOUNDATION, priority 2014, dated 2019)
